Data: PMC7180948, “New Insights into 4-Anilinoquinazolines as Inhibitors of Cardiac Troponin I–Interacting Kinase (TNNi3K)” (Molecules, 2020)

How the values were obtained:
Assay in all cases: biochemical
Parameters in all cases: KINOMEscan competition binding panel (Eurofins DiscoverX), single concentration, % inhibition
Settings in all cases: read-out: 7 at 1 µM % inhibition
NEK3 = NEK3 (Homo sapiens, UniProt P51956)
Summary of the method: (§1)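 Binding was profiled in the KINOMEscan panel of over 400 human kinases, with each compound tested at a single concentration of 1 µM to map selectivity.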

[1] = biological target: T1, JAK1(JH2domain-pseudokinase) (Homo sapiens, UniProt P23458)
T1 construct: JH2domain-pseudokinase
Summary of the method: as §1

BMX = BMX (Homo sapiens, UniProt P51813)
Summary of the method: as §1

[2] = biological target: T2, ABL1(H396P)-nonphosphorylated (Homo sapiens, UniProt P00519, H396P)
T2 construct: nonphosphorylated
Summary of the method: as §1

GCN2(Kin.Dom.2,S808G) = biological target: T3, GCN2(Kin.Dom.2,S808G) (Homo sapiens, UniProt Q9P2K8, S808G)
T3 construct: gene EIF2AK4; Kin.Dom.2
Summary of the method: as §1

TRKB = biological target: T4, TRKB (Homo sapiens, UniProt Q16620)
T4 construct: gene NTRK2
Summary of the method: as §1

NEK9 = NEK9 (Homo sapiens, UniProt Q8TD19)
Summary of the method: as §1

WEE1 = WEE1 (Homo sapiens, UniProt P30291)
Sequence of WEE1 (P30291 whole entry): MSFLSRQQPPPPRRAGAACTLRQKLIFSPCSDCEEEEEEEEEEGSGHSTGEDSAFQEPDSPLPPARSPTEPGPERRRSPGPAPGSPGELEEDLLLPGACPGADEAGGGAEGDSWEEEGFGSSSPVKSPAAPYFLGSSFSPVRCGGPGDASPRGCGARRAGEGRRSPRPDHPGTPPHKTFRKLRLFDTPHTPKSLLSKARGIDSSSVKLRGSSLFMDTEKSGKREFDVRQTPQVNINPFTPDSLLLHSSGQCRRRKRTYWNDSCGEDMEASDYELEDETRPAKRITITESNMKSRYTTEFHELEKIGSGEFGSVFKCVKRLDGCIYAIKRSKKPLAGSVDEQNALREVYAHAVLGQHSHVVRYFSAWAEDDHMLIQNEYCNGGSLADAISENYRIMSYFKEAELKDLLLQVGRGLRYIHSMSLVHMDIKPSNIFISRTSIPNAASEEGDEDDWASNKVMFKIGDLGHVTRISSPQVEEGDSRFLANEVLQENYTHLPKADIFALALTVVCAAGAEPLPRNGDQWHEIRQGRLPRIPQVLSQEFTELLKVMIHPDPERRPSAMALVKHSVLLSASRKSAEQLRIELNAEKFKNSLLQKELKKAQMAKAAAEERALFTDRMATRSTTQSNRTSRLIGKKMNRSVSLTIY
Summary of the method: as §1

GRK1 = GRK1 (Homo sapiens, UniProt Q15835)
Sequence of GRK1 (Q15835 whole entry): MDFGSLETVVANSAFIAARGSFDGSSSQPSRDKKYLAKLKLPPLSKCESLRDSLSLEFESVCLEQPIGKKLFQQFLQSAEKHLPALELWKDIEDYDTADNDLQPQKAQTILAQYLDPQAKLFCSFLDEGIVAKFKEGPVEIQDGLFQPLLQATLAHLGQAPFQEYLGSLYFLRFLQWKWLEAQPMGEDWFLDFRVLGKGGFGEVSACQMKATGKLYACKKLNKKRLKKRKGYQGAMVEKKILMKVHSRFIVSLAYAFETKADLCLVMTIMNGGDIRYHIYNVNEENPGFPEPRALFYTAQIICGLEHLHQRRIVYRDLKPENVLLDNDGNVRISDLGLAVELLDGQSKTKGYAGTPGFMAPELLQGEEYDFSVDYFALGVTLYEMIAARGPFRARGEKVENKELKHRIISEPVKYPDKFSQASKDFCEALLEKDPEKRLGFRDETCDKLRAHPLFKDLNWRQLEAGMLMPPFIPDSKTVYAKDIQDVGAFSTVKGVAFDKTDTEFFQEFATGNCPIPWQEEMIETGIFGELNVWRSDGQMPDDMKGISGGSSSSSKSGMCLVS
Summary of the method: as §1

LKB1 = biological target: T5, LKB1 (Homo sapiens, UniProt Q15831)
T5 construct: gene STK11
Summary of the method: as §1

KIT(D816V) = KIT(D816V) (Homo sapiens, UniProt P10721, D816V)
Summary of the method: as §1

AURKC = AURKC (Homo sapiens, UniProt Q9UQB9)
Summary of the method: as §1

EPHA8 = EPHA8 (Homo sapiens, UniProt P29322)
Summary of the method: as §1

EGFR(L747-T751del,Sins) = EGFR(L747-T751del,Sins) (Homo sapiens, UniProt P00533, DEL747-750/T751S)
Summary of the method: as §1

PAK6 = PAK6 (Homo sapiens, UniProt Q9NQU5)
Summary of the method: as §1

MUSK = MUSK (Homo sapiens, UniProt O15146)
Sequence of MUSK (O15146 whole entry): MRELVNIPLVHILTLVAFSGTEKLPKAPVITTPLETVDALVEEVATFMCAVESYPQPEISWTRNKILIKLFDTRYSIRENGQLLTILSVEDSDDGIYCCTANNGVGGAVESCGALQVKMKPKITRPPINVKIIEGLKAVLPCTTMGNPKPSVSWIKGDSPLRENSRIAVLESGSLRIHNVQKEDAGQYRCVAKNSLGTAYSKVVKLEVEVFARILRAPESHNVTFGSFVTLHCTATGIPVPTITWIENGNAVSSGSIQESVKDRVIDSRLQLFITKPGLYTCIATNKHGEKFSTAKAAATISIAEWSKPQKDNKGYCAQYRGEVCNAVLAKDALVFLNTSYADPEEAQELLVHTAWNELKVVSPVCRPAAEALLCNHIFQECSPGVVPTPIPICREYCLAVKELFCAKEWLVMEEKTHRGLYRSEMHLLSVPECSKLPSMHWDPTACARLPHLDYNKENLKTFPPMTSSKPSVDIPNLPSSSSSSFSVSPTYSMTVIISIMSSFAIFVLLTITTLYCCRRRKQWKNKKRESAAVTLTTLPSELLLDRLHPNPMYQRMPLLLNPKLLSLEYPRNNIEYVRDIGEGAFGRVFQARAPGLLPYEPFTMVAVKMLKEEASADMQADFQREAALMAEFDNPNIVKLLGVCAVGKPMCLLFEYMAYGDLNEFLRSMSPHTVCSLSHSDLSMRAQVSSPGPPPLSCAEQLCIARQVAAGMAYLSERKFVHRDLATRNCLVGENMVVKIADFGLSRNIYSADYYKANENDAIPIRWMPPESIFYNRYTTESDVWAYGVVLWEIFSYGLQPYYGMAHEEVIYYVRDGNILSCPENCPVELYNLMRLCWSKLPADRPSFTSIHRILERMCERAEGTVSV
Summary of the method: as §1

[3] = biological target: T6, JAK3(JH1domain-catalytic) (Homo sapiens, UniProt P52333)
T6 construct: JH1domain-catalytic
T6 sequence (P52333 whole entry): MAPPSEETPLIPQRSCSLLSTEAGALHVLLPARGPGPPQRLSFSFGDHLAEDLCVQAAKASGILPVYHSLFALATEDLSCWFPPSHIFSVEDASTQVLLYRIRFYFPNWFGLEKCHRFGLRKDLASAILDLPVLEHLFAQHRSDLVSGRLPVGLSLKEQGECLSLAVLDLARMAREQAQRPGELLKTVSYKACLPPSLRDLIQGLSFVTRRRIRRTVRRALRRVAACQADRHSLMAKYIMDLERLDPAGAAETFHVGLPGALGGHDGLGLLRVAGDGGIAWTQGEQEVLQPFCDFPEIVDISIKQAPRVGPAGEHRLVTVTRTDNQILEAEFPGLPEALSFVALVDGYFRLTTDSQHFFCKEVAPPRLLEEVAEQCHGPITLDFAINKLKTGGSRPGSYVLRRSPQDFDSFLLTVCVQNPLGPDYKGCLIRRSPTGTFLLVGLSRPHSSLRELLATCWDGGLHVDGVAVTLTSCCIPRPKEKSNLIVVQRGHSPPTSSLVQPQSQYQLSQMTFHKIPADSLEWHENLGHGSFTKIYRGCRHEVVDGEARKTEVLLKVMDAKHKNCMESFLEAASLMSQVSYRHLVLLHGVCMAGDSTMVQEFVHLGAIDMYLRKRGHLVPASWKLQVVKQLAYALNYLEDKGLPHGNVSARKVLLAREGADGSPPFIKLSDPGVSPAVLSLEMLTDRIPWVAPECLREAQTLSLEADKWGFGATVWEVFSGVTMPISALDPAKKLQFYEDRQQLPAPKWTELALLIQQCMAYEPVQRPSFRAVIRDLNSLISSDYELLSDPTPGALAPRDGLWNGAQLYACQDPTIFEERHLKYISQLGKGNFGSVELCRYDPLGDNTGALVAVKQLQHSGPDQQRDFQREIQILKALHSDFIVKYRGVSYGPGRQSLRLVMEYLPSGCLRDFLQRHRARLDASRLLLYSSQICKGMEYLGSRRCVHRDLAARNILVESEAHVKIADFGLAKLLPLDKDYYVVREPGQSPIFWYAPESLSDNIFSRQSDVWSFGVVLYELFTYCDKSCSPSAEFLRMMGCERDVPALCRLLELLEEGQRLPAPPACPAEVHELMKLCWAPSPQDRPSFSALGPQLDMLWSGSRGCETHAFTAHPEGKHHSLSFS
Summary of the method: as §1

NEK7 = NEK7 (Homo sapiens, UniProt Q8TDX7)
Summary of the method: as §1

ALK = ALK (Homo sapiens, UniProt Q9UM73)
Summary of the method: as §1

LTK = LTK (Homo sapiens, UniProt P29376)
Sequence of LTK (P29376 whole entry): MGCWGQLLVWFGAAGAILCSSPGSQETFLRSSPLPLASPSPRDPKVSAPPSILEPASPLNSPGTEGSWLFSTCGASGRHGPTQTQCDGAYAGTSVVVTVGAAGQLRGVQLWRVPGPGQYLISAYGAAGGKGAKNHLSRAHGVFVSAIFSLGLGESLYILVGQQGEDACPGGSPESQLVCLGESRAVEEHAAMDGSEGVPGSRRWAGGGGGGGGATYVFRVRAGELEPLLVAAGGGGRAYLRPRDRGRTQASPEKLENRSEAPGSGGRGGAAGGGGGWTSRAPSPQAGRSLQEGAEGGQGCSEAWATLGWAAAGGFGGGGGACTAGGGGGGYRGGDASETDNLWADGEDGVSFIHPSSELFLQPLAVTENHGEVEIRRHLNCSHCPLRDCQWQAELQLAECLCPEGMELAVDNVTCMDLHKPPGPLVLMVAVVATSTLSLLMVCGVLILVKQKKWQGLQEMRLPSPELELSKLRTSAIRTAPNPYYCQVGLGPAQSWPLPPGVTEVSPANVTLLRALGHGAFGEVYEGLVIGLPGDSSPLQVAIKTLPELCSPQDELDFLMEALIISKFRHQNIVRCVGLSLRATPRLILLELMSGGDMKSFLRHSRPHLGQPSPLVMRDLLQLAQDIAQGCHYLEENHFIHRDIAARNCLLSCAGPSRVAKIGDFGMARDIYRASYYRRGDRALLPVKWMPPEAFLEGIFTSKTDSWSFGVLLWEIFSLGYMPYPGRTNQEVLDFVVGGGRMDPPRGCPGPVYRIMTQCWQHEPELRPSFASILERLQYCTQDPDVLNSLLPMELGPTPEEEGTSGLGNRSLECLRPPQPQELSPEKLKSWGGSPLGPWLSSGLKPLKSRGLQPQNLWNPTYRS
Summary of the method: as §1

SLK = SLK (Homo sapiens, UniProt Q9H2G2)
Summary of the method: as §1

CSNK1A1 = CSNK1A1 (Homo sapiens, UniProt P48729)
Sequence of CSNK1A1 (P48729 whole entry): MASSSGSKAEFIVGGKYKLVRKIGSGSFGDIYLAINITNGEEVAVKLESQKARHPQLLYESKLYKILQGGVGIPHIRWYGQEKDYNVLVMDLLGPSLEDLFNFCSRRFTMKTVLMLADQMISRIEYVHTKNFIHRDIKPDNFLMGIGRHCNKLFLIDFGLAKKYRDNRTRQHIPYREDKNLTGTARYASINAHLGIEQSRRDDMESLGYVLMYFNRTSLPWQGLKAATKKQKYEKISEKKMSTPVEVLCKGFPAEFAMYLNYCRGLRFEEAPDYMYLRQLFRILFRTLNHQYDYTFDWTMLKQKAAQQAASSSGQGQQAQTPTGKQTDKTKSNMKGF
Summary of the method: as §1

MLK2 = biological target: T7, MLK2 (Homo sapiens, UniProt Q02779)
T7 construct: gene MAP3K10
Summary of the method: as §1

JNK3 = biological target: T8, JNK3 (Homo sapiens, UniProt P53779)
T8 construct: gene MAPK10
Summary of the method: as §1

Sequence of NEK3 (P51956 whole entry): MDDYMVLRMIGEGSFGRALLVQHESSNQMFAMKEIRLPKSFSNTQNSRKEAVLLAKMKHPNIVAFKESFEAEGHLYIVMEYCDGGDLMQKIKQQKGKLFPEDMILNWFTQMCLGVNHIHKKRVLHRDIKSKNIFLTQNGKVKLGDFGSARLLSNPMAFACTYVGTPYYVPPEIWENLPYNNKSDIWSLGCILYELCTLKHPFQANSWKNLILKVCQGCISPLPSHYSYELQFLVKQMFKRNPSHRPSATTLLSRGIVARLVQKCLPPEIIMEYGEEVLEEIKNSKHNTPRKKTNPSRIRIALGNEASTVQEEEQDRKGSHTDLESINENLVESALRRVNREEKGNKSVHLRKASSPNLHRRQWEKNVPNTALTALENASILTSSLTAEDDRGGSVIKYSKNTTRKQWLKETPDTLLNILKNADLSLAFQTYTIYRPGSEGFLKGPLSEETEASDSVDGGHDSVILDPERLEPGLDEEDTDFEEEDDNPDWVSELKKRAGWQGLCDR

For CNS(=O)(=O)c1ccc(N(C)C)c(Nc2ncnc3cc(OC)c(OC)cc23)c1 [compound 7, 3-((6,7-dimethoxyquinazolin-4-yl)amino)-4-(dimethylamino)-N-methylbenzenesulfonamide], the inhibition at 1 µM (NEK3) was 0%, the inhibition at 1 µM [1] was 20% and the inhibition at 1 µM (BMX) was 0%. The inhibition at 1 µM [2] was 73%, the inhibition at 1 µM (GCN2(Kin.Dom.2,S808G)) was 7% and the inhibition at 1 µM (TRKB) was 14%. It also gave an inhibition at 1 µM (NEK9) of 0%, an inhibition at 1 µM (WEE1) of 0% and an inhibition at 1 µM (GRK1) of 0%. For the same compound, the inhibition at 1 µM (LKB1) was 0%, the inhibition at 1 µM (KIT(D816V)) was 91.7% and the inhibition at 1 µM (AURKC) was 0%. For the same compound, the inhibition at 1 µM (EPHA8) was 0%, the inhibition at 1 µM (EGFR(L747-T751del,Sins)) was 0% and the inhibition at 1 µM (PAK6) was 7%. It also gave an inhibition at 1 µM (MUSK) of 0%, an inhibition at 1 µM [3] of 17% and an inhibition at 1 µM (NEK7) of 0%. The inhibition at 1 µM (ALK) was 10%, the inhibition at 1 µM (LTK) was 44% and the inhibition at 1 µM (SLK) was 0%. For the same compound, the inhibition at 1 µM (CSNK1A1) was 0%, the inhibition at 1 µM (MLK2) was 15% and the inhibition at 1 µM (JNK3) was 0%.
